Experimental data taken from patent publication US9440989B2, “Antifibrinolytic compounds” (PROYECTO DE BIOMEDICINA CIMA, S.L., priority 2012, dated 2016).

Tested on: human blood (whole blood clot lysis, tPA)
Test: Thromboelastometry (ROTEM, modified in-tem with tPA): whole blood clot formation and lysis, human blood
Details: Homo sapiens, read-out: EC50LT (effective concentration to delay lysis time by 50%)
Protocol: A modification of in-tem test as described below was used for the examination of antifibrinolytic effects of tested compounds and its interaction with platelets in citrated blood.
In a pre-warmed cuvette and holder 1 μL of Tissue plasminogen activator (tPA) (150,000 U/mL, Actylise), 20 μL of start-tem reagent (CaCl2), 20 μL of in-tem reagent (activators of coagulation system), 3 μL of DMSO (control) or tested compounds (CMs) in DMSO and 300 μL of citrated blood pre-warmed were pipetted. The cup holder containing the sample mixture was placed immediately on the appropriate channel. The measurement was recorded for 60 min to allow clot formation and lysis.

Structure (SMILES)	EC50 [µM]
CC(C)CCOc1ccc(S(=O)(=O)C2(C(=O)NO)CCC3(CCNCC3)C2)cc1 (centres unmarked) [Example 1-05]	10 to 25
COC(=O)c1ccc(Oc2ccc(S(=O)(=O)C3(C(=O)NO)CCC4(CCNCC4)C3)cc2)cc1 (centres unmarked) [Example 1-06]	> 25
O=C(NO)C1(S(=O)(=O)c2ccc(OCCN3CCCCC3)cc2)CCC2(CCNCC2)C1 (centres unmarked) [Example 1-11, N-hydroxy-3-(4-[2-(piperidin-1-yl)ethoxy]phenylsulfonyl)-8-azaspiro[4.5]decane-3-carboxamide]	< 1
CC(=O)Nc1ccc(Oc2ccc(S(=O)(=O)C3(C(=O)NO)CCC4(CCNCC4)C3)cc2)cc1 (centres unmarked) [Example 1-13]	< 1
COc1ccc(Sc2ccc(S(=O)(=O)C3(C(=O)NO)CCC4(CCNCC4)C3)cc2)cc1 (centres unmarked) [Example 1-15]	> 25
COC1CCN(c2ccc(S(=O)(=O)C3(C(=O)NO)CCC4(CCNCC4)C3)cc2)CC1 (centres unmarked) [Example 1-16, N-hydroxy-3-[4-(4-methoxypiperidin-1-yl)phenylsulfonyl]-8-azaspiro[4.5]decane-3-carboxamide]	1 to 10
COc1ccc(S(=O)(=O)c2ccc(S(=O)(=O)C3(C(=O)NO)CCC4(CCNCC4)C3)cc2)cc1 (centres unmarked) [Example 1-17]	1 to 10
O=C(NO)C1(S(=O)(=O)c2ccc(OC3CCCCC3)cc2)CCC2(CCNCC2)C1 (centres unmarked) [Example 1-18]	1 to 10
O=C(NO)C1(S(=O)(=O)c2ccc(Oc3ccc(C(F)(F)F)cc3)cc2)CCC2(CCNCC2)C1 (centres unmarked) [Example 1-21]	< 1
COc1ccc(Oc2ccc(S(=O)(=O)C3(C(=O)NO)CCC4(CCN(CC(C)=O)CC4)C3)cc2)cc1 (centres unmarked) [Example 1-28]	1 to 10
COc1ccc(Oc2ccc(S(=O)(=O)C3(C(=O)NO)CCC4(CCN(CC(=O)O)CC4)C3)cc2)cc1 (centres unmarked) [Example 1-29]	1 to 10
CCCN1CCC2(CC1)CCC(C(=O)NO)(S(=O)(=O)c1ccc(Oc3ccc(OC)cc3)cc1)C2 (centres unmarked) [Example 1-31]	< 1
COc1ccc(Oc2ccc(S(=O)(=O)C3(C(=O)NO)CCC4(CCN(C5CC5)CC4)C3)cc2)cc1 (centres unmarked) [Example 1-32]	1 to 10
CNC(=O)N1CCC2(CC1)CCC(C(=O)NO)(S(=O)(=O)c1ccc(Oc3ccc(OC)cc3)cc1)C2 (centres unmarked) [Example 1-33]	> 25
COc1ccc(Oc2ccc(S(=O)(=O)C3(C(=O)NO)CCC4(CCN(c5ccccc5)CC4)C3)cc2)cc1 (centres unmarked) [Example 1-34]	> 25
COc1ccc(Oc2ccc(S(=O)(=O)C3(C(=O)NO)CCC4(CCN(c5ccccn5)CC4)C3)cc2)cc1 (centres unmarked) [Example 1-35]	1 to 10
COc1ccc(Oc2ccc(S(=O)(=O)C3(C(=O)NO)CCC4(CCN(Cc5ccccc5)CC4)C3)cc2)cc1 (centres unmarked) [Example 1-36]	1 to 10
COc1ccc(Oc2ccc(S(=O)(=O)C3(C(=O)NO)CCC4(CCN(Cc5ccncc5)CC4)C3)cc2)cc1 (centres unmarked) [Example 1-37]	> 25
COc1ccc(-c2ccc(S(=O)(=O)C3(C(=O)NO)CCC4(CCNCC4)C3)cc2)cc1 (centres unmarked) [Example 1-41, N-hydroxy-3-(4-(4-methoxyphenyl)Phenylsulfonyl)-8-azaspiro[4.5]decane-3-carboxamide]	> 25
COc1ccc(Oc2ccc(S(=O)(=O)C3(C(=O)NO)CC34CCNCC4)cc2)cc1 (centres unmarked) [Example 1-43]	< 1
COc1ccc(Oc2ccc(S(=O)(=O)C3(C(=O)NO)CCC4(CCNCC4)C3)cc2Cl)cc1 (centres unmarked) [Example 1-56, N-hydroxy-3-(3-chloro-4-(4-methoxyphenoxyl)Phenylsulfonyl)-8-azaspiro[4.5]decane-3-carboxamide]	< 1

Structure (SMILES)	EC50 [µM]
O=C(NO)C1(S(=O)(=O)c2ccc(O)cc2)CCC2(CCNCC2)C1 (centres unmarked) [Example 1-60, N-hydroxy-3-(4-hydroxyphenylsulfonyl)-8-azaspiro[4.5]decane-3-carboxamide]	> 25
Nc1ccc(S(=O)(=O)C2(C(=O)NO)CCC3(CCNCC3)C2)cc1 (centres unmarked) [Example 1-61]	> 25
NC(=O)c1ccc(Oc2ccc(S(=O)(=O)C3(C(=O)NO)CCC4(CCNCC4)C3)cc2)cc1 (centres unmarked) [Example 1-64]	> 25
CC(C)NC(=O)c1ccc(Oc2ccc(S(=O)(=O)C3(C(=O)NO)CCC4(CCNCC4)C3)cc2)cc1 (centres unmarked) [Example 1-65]	1 to 10
O=C(NO)C1(S(=O)(=O)c2ccc(Cc3ccccc3)cc2)CCC2(CCNCC2)C1 (centres unmarked) [Example 1-66]	> 25
O=C(NO)C1(S(=O)(=O)c2ccc(NCc3ccccc3)cc2)CCC2(CCNCC2)C1 (centres unmarked) [Example 1-67]	< 1
COC1CCC(Oc2ccc(S(=O)(=O)C3(C(=O)NO)CCC4(CCNCC4)C3)cc2)CC1 (centres unmarked) [Example 1-70]	< 1
CC(C)Oc1ccc(Oc2ccc(S(=O)(=O)C3(C(=O)NO)CCC4(CCNCC4)C3)cc2)cc1 (centres unmarked) [Example 1-72]	1 to 10
COC(=O)c1cccc(Oc2ccc(S(=O)(=O)C3(C(=O)NO)CCC4(CCNCC4)C3)cc2)c1 (centres unmarked) [Example 1-74]	1 to 10
O=C(O)c1cccc(Oc2ccc(S(=O)(=O)C3(C(=O)NO)CCC4(CCNCC4)C3)cc2)c1 (centres unmarked) [Example 1-75]	1 to 10
O=C(NO)C1(S(=O)(=O)c2ccc(Oc3ccc(Cl)cc3)cc2)CCC2(CCNCC2)C1 (centres unmarked) [Example 1-76]	> 25
COC1CCC(Nc2ccc(S(=O)(=O)C3(C(=O)NO)CCC4(CCNCC4)C3)cc2)CC1 (centres unmarked) [Example 1-77]	1 to 10
O=C(NO)C1(S(=O)(=O)c2cccc(NC3CCCCC3)c2)CCC2(CCNCC2)C1 (centres unmarked) [Example 1-78]	> 25
O=C(Nc1ccc(S(=O)(=O)C2(C(=O)NO)CCC3(CCNCC3)C2)cc1)C1CCCCC1 (centres unmarked) [Example 1-81, N-hydroxy-3-(4-(cyclohexanecarbonylamino)Phenylsulfonyl)-8-azaspiro[4.5]decane-3-carboxamide]	< 1
CNC(=O)C1CCC(Nc2ccc(S(=O)(=O)C3(C(=O)NO)CCC4(CCNCC4)C3)cc2)CC1 (centres unmarked) [Example 1-83]	> 25
O=C(O)C1CCC(Nc2ccc(S(=O)(=O)C3(C(=O)NO)CCC4(CCNCC4)C3)cc2)CC1 (centres unmarked) [Example 1-84]	< 1
O=C(O)c1ccc(C(=O)Oc2ccc(S(=O)(=O)C3(C(=O)NO)CCC4(CCNCC4)C3)cc2)cc1 (centres unmarked) [Example 1-86]	< 1
O=C(O)c1ccc(Oc2ccc(S(=O)(=O)C3(C(=O)NO)CCC4(CCNCC4)C3)cc2)cc1F (centres unmarked) [Example 1-88]	< 1
CNC(=O)c1ccc(Oc2ccc(S(=O)(=O)C3(C(=O)NO)CCC4(CCNCC4)C3)cc2)cc1F (centres unmarked) [Example 1-89]	> 25
COc1cc(S(=O)(=O)C2(C(=O)NO)CCC3(CCNCC3)C2)ccc1NC1CCCCC1 (centres unmarked) [Example 1-90, N-hydroxy-3-(3-methoxy-4-(cyclohexylamino)Phenylsulfonyl)-8-azaspiro[4.5]decane-3-carboxamide]	> 25
O=C(NO)C1(S(=O)(=O)c2ccc(OCC3CCCCC3)cc2)CCC2(CCNCC2)C1 (centres unmarked) [Example 1-92]	1 to 10

Structure (SMILES)	EC50 [µM]
CNC(=O)c1ccc(Oc2ccc(S(=O)(=O)C3(C(=O)NO)CCC4(CCNCC4)C3)cc2)c(F)c1 (centres unmarked) [Example 1-93]	> 25
COC(=O)c1ccc(Oc2ccc(S(=O)(=O)C3(C(=O)NO)CCC4(CCNCC4)C3)cc2)c(F)c1 (centres unmarked) [Example 1-94]	> 25
O=C(O)c1ccc(Oc2ccc(S(=O)(=O)C3(C(=O)NO)CCC4(CCNCC4)C3)cc2)c(F)c1 (centres unmarked) [Example 1-95]	> 25
O=C(NO)C1(S(=O)(=O)c2ccc(NC3CCCC3)cc2)CCC2(CCNCC2)C1 (centres unmarked) [Example 1-97]	1 to 10
O=C(Oc1ccc(S(=O)(=O)C2(C(=O)NO)CCC3(CCNCC3)C2)cc1)C1CCCCC1 (centres unmarked) [Example 1-98]	> 25
O=C(NO)C1(S(=O)(=O)c2ccc(OCc3ccncc3)cc2)CCC2(CCNCC2)C1 (centres unmarked) [Example 1-100]	< 1
CNC(=O)c1ccc(C(=O)Oc2ccc(S(=O)(=O)C3(C(=O)NO)CCC4(CCNCC4)C3)cc2)cc1F (centres unmarked) [Example 1-101]	1 to 10
CNC(=O)c1ccc(CNc2ccc(S(=O)(=O)C3(C(=O)NO)CCC4(CCNCC4)C3)cc2)cc1 (centres unmarked) [Example 1-104]	< 1
COC(=O)c1ccc(CNc2ccc(S(=O)(=O)C3(C(=O)NO)CCC4(CCNCC4)C3)cc2)cc1 (centres unmarked) [Example 1-105]	> 25
O=C(O)c1ccc(CNc2ccc(S(=O)(=O)C3(C(=O)NO)CCC4(CCNCC4)C3)cc2)cc1 (centres unmarked) [Example 1-106]	< 1
O=C(NO)C1(S(=O)(=O)c2ccc(Oc3ccc(OC(F)(F)F)c(Cl)c3)cc2)CCC2(CCNCC2)C1 (centres unmarked) [Example 1-114]	10 to 25
O=C(NO)C1(S(=O)(=O)c2ccc(Oc3cccc(OC(F)(F)F)c3)cc2)CCC2(CCNCC2)C1 (centres unmarked) [Example 1-115]	< 1
O=C(NO)C1(S(=O)(=O)c2ccc(F)c(Cl)c2)CCC2(CCNCC2)C1 (centres unmarked) [Example 1-116, N-hydroxy-3-(3-chloro-4-fluorophenylsulfonyl)-8-azaspiro[4.5]decane-3-carboxamide]	< 1
O=C(NO)C1(S(=O)(=O)c2ccc(Oc3ccc(OC(F)(F)F)c(F)c3)cc2)CCC2(CCNCC2)C1 (centres unmarked) [Example 1-118]	< 1
COc1ccc(C(=O)Oc2cccc(S(=O)(=O)C3(C(=O)NO)CCC4(CCNCC4)C3)c2)cc1 (centres unmarked) [Example 1-119]	< 1
O=C(Oc1cccc(S(=O)(=O)C2(C(=O)NO)CCC3(CCNCC3)C2)c1)c1ccc(OC(F)(F)F)cc1 (centres unmarked) [Example 1-120]	> 25
O=C(NO)C1(S(=O)(=O)c2ccc(O)c(Cl)c2)CCC2(CCNCC2)C1 (centres unmarked) [Example 1-121]	1 to 10
O=C(NO)C1(S(=O)(=O)c2ccc(OCc3ccccc3)c(Cl)c2)CCC2(CCNCC2)C1 (centres unmarked) [Example 1-122]	> 25
O=C(NO)C1(S(=O)(=O)c2cccc(Oc3ccc(OC(F)(F)F)cc3)c2)CCC2(CCNCC2)C1 (centres unmarked) [Example 1-123]	< 1
O=C(NO)C1(S(=O)(=O)c2ccc(Oc3ccc(OC(F)(F)F)cc3)cc2)CCC2(CCN(C3CC3)CC2)C1 (centres unmarked) [Example 1-124]	1 to 10
O=C(NO)C1(S(=O)(=O)c2ccc(NCC3CCC(F)(F)CC3)cc2)CCC2(CCNCC2)C1 (centres unmarked) [Example 1-125]	< 1

Same assay, conditions: read-out: EC50LT (effective concentration to delay lysis time by 50%); human blood, tPA, assayed concentrations 1000-0.2 μM

Structure (SMILES)	EC50 [µM]
COc1ccc(Oc2ccc(S(=O)(=O)C3(C(=O)NO)CCC4(CCN(Cc5cnc[nH]5)CC4)C3)cc2)cc1 (centres unmarked) [Example 1-39]	> 25
CN(C)C(=O)c1ccc(Oc2ccc(S(=O)(=O)C3(C(=O)NO)CCC4(CCNCC4)C3)cc2)cc1 (centres unmarked) [Example 1-63]	1 to 10
